Data reported in ChEMBL document CHEMBL1909294, “Translating clinical findings into knowledge in drug safety evaluation--drug induced liver injury prediction system (DILIps)” (PLoS Comput Biol, 2011).

Experiments:
[1] = test system: Hepatotoxicity;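 as to HepSE Combined Scores: combined hepatic side effect score as listed in the training data of the Drug Induced Liver Injury Prediction System (DILIps)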;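 as to HepSE bilirubinemia: bilirubinemia hepatic side effect score drawn from the DILIps training data, a prediction system for drug-induced liver injury; call rule not given here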;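 as to HepSE cholecystitis: Cholecystitis-related hepatic side effect score drawn from the DILIps (drug-induced liver injury prediction) training data set; call rule not given here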;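 as to HepSE cholelithiasis: hepatic side effect score for cholelithiasis, drawn from the DILIps training data for predicting drug-induced liver injury; call rule not given here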;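 as to HepSE jaundice: Jaundice-related hepatic side-effect score drawn from the training data of the DILIps (drug-induced liver injury prediction system); call rule not given here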; as to HepSE liver disease: call rule not given here;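 as to HepSE liver function tests abnormal: hepatic side effect score taken from the DILIps (drug-induced liver injury prediction system) training data, here covering abnormal liver function test findings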
[2] = test system: Hepatotoxicity; remark: listed apart in the source;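 as to HepSE Combined Scores: combined hepatic side effect score as listed in the training data of the Drug Induced Liver Injury Prediction System (DILIps)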;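 as to HepSE bilirubinemia: bilirubinemia hepatic side effect score drawn from the DILIps training data, a prediction system for drug-induced liver injury; call rule not given here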;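 as to HepSE cholelithiasis: hepatic side effect score for cholelithiasis, drawn from the DILIps training data for predicting drug-induced liver injury; call rule not given here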;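 as to HepSE jaundice: Jaundice-related hepatic side-effect score drawn from the training data of the DILIps (drug-induced liver injury prediction system); call rule not given here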; as to HepSE liver disease: call rule not given here;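 as to HepSE liver function tests abnormal: hepatic side effect score taken from the DILIps (drug-induced liver injury prediction system) training data, here covering abnormal liver function test findings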
[3] = test system: Hepatotoxicity; remark: listed apart in the source;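 as to HepSE Combined Scores: combined hepatic side effect score as listed in the training data of the Drug Induced Liver Injury Prediction System (DILIps)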;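 as to HepSE bilirubinemia: bilirubinemia hepatic side effect score drawn from the DILIps training data, a prediction system for drug-induced liver injury; call rule not given here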;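 as to HepSE cholelithiasis: hepatic side effect score for cholelithiasis, drawn from the DILIps training data for predicting drug-induced liver injury; call rule not given here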;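 as to HepSE jaundice: Jaundice-related hepatic side-effect score drawn from the training data of the DILIps (drug-induced liver injury prediction system); call rule not given here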; as to HepSE liver disease: call rule not given here;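 as to HepSE liver function tests abnormal: hepatic side effect score taken from the DILIps (drug-induced liver injury prediction system) training data, here covering abnormal liver function test findings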
[4] = test system: Hepatotoxicity; remark: listed apart in the source;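 as to HepSE Combined Scores: combined hepatic side effect score as listed in the training data of the Drug Induced Liver Injury Prediction System (DILIps)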;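 as to HepSE bilirubinemia: bilirubinemia hepatic side effect score drawn from the DILIps training data, a prediction system for drug-induced liver injury; call rule not given here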;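 as to HepSE cholelithiasis: hepatic side effect score for cholelithiasis, drawn from the DILIps training data for predicting drug-induced liver injury; call rule not given here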;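 as to HepSE jaundice: Jaundice-related hepatic side-effect score drawn from the training data of the DILIps (drug-induced liver injury prediction system); call rule not given here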; as to HepSE liver disease: call rule not given here;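 as to HepSE liver function tests abnormal: hepatic side effect score taken from the DILIps (drug-induced liver injury prediction system) training data, here covering abnormal liver function test findings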
[5] = test system: Hepatotoxicity; remark: listed apart in the source; as to HepSE liver disease: call rule not given here
[6] = test system: Hepatotoxicity; remark: listed apart in the source; as to HepSE liver disease: call rule not given here
[7] = test system: Hepatotoxicity; remark: listed apart in the source
[8] = test system: Hepatotoxicity; remark: listed apart in the source
[9] = test system: Hepatotoxicity; remark: listed apart in the source
[10] = test system: Hepatotoxicity; remark: listed apart in the source
[11] = test system: Hepatotoxicity; remark: listed apart in the source
[12] = test system: Hepatotoxicity; remark: listed apart in the source
[13] = test system: Hepatotoxicity; remark: listed apart in the source
[14] = test system: Hepatotoxicity; remark: listed apart in the source

SMILES | HepSE_liver disease [1] | HepSE_bilirubinemia [2] | HepSE_hepatic necrosis [3] | HepSE_liver function tests abnormal [4] | HepSE_hepatitis [5] | HepSE_Combined Scores [6] | HepSE_jaundice [7] | HepSE_cholelithiasis [8] | HepSE_cholecystitis [9] | HepSE_elevated liver function tests [10] | HepSE_liver fatty [11] | HepSE_hepatomegaly [12] | HepSE_cirrhosis [13] | HepSE_hepatic failure [14]
CC[C@H](C)C[C@H](C)CCCCCCCCC(=O)N[C@H]1C[C@@H](O)[C@@H](NCCN)NC(=O)[C@@H]2[C@@H](O)CCN2C(=O)[C@H]([C@H](O)CCN)NC(=O)[C@H]([C@H](O)[C@@H](O)c2ccc(O)cc2)NC(=O)[C@@H]2C[C@@H](O)CN2C(=O)[C@H]([C@@H](C)O)NC1=O [CASPOFUNGIN] | 0 | 1 | 1 | 0 | 0 | 5 | 1 | 0 | 0 | 0 | 0 | 1 | 0 | 1
N[C@@H](C(=O)N[C@@H]1C(=O)N2C(C(=O)O)=C(Cl)CS[C@H]12)c1ccccc1 [CEFACLOR ANHYDROUS] | 0 | 0 | 0 | 0 | 1 | 2 | 1 | 0 | 0 | 0 | 0 | 0 | 0 | 0
CC1=C(C(=O)O)N2C(=O)[C@@H](NC(=O)[C@H](N)c3ccc(O)cc3)[C@H]2SC1 [CEFADROXIL] | 0 | 0 | 0 | 0 | 0 | 1 | 0 | 0 | 0 | 0 | 0 | 0 | 0 | 1
Cc1nnc(SCC2=C(C(=O)O)N3C(=O)[C@@H](NC(=O)Cn4cnnn4)[C@H]3SC2)s1 [CEFAZOLIN] | 0 | 0 | 0 | 0 | 1 | 1 | 0 | 0 | 0 | 0 | 0 | 0 | 0 | 0
CO/N=C(\C(=O)N[C@@H]1C(=O)N2C(C(=O)OCOC(=O)C(C)(C)C)=C(/C=C\c3scnc3C)CS[C@H]12)c1csc(N)n1 [CEFDITOREN PIVOXIL] | 0 | 0 | 0 | 1 | 0 | 1 | 0 | 0 | 0 | 0 | 0 | 0 | 0 | 0
C=CC1=C(C(=O)O)N2C(=O)[C@@H](NC(=O)/C(=N\OCC(=O)O)c3csc(N)n3)[C@H]2SC1 [CEFIXIME] | 0 | 1 | 0 | 0 | 1 | 3 | 1 | 0 | 0 | 0 | 0 | 0 | 0 | 0
CCN1CCN(C(=O)N[C@@H](C(=O)N[C@@H]2C(=O)N3C(C(=O)O)=C(CSc4nnnn4C)CS[C@H]23)c2ccc(O)cc2)C(=O)C1=O [CEFOPERAZONE] | 1 | 0 | 0 | 0 | 1 | 2 | 0 | 0 | 0 | 0 | 0 | 0 | 0 | 0
CO/N=C(\C(=O)N[C@@H]1C(=O)N2C(C(=O)O)=C(COC(C)=O)CS[C@H]12)c1csc(N)n1 [CEFOTAXIME] | 0 | 0 | 0 | 0 | 1 | 2 | 1 | 0 | 0 | 0 | 0 | 0 | 0 | 0
CO[C@@]1(NC(=O)C2SC(=C(C(N)=O)C(=O)O)S2)C(=O)N2C(C(=O)O)=C(CSc3nnnn3C)CS[C@@H]21 (stereo partly drawn) [CEFOTETAN] | 0 | 0 | 0 | 0 | 0 | 0 | 0 | 0 | 0 | 0 | 0 | 0 | 0 | 0
CO[C@@]1(NC(=O)Cc2cccs2)C(=O)N2C(C(=O)O)=C(COC(N)=O)CS[C@@H]21 [CEFOXITIN] | 0 | 0 | 0 | 0 | 0 | 1 | 1 | 0 | 0 | 0 | 0 | 0 | 0 | 0
COCC1=C(C(=O)O)N2C(=O)[C@@H](NC(=O)/C(=N\OC)c3csc(N)n3)[C@H]2SC1 [CEFPODOXIME] | 0 | 0 | 0 | 0 | 0 | 0 | 0 | 0 | 0 | 0 | 0 | 0 | 0 | 0
CC=CC1=C(C(=O)O)N2C(=O)[C@@H](NC(=O)[C@H](N)c3ccc(O)cc3)[C@H]2SC1 [CEFPROZIL] | 0 | 0 | 0 | 0 | 0 | 1 | 1 | 0 | 0 | 0 | 0 | 0 | 0 | 0
